Here are results for nine molecules from paper PMC3498823 (Bioorganic & medicinal chemistry letters, 2011).

Entries after “also recorded” stand apart in the source; their conditions may differ.

Assay [1] concerns amphetamine induced hyperlocomotion in rats. Description: reversal of amphetamine-induced hyperlocomotion. Format: in vivo. To be noted: 30 mg/kg i.p.
Assay [2] deals with mGlu5 receptor (Rattus norvegicus, UniProt P31424). Nature of the assay: triple-add functional calcium mobilization assay, mGlu5. Format: cell-based. To be noted: PAM, Ago-PAM, weak PAM or partial antagonist. For orientation: Calcium flux is commonly read through the fluorescence of an indicator in the cells.
mGlu5 receptor (Rattus norvegicus, UniProt P31424), sequence (P31424 21-1203): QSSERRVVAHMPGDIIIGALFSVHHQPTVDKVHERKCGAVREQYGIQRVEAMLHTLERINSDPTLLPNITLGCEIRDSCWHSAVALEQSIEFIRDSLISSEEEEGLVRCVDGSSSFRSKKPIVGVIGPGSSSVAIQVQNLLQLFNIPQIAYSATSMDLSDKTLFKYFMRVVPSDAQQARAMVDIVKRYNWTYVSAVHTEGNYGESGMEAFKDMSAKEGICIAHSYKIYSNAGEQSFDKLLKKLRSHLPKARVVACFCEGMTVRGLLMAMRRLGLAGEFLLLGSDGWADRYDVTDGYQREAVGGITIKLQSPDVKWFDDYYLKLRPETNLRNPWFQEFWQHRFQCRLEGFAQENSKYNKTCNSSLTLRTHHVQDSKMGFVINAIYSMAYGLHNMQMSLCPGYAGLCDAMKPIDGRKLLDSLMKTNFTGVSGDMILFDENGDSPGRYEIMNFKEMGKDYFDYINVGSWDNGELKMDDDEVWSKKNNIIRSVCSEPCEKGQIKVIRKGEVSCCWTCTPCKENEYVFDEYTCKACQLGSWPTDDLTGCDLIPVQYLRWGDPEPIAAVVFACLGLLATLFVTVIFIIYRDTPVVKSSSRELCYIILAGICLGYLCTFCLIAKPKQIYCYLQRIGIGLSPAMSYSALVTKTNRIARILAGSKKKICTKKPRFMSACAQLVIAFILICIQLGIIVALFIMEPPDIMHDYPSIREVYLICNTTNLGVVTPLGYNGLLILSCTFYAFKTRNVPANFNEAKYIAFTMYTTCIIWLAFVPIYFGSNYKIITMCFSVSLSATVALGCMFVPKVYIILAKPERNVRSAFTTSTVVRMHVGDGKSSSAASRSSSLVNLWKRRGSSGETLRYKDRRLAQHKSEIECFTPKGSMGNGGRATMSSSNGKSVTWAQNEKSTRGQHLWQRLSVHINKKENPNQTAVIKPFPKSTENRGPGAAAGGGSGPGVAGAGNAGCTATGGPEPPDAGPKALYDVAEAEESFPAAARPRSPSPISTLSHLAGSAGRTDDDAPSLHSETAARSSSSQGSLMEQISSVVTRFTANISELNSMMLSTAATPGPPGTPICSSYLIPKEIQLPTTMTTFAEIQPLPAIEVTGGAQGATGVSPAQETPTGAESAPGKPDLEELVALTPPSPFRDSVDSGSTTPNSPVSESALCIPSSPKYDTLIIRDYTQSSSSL
The subject of assay [3] is mGlu5 receptor. The description is as above. Format: cell-based. To be noted: PAM, Ago-PAM, weak PAM or partial antagonist.
The test system of assay [4] is mGlu5 receptor. To be noted: HTS lead; cited from earlier work.
mGlu5 receptor, sequence (P31424 21-1203): as above
The subject of assay [5] is in vivo preclinical antipsychotic model. To be noted: orally active; cited from earlier work.

As to `O=C1NCCc2cc(C#Cc3ccccc3)ccc21` [9a], the “reversal of amphetamine-induced hyperlocomotion” value (shortened to “reversal”) in assay [1] is recorded as “significant reversal”.

In the case of `CCCN1CCc2cc(C#Cc3ccccc3)ccc2C1=O` [9c], the “reversal” value in assay [1] is recorded as “significant reversal; also recorded: Reversal of amphetamine-induced hyperlocomotion”.

For the molecule `O=C1c2ccc(C#Cc3ccccc3)cc2CCN1CC1CC1` [9f], the “reversal” value in assay [1] is reported as “significant reversal”.

For `CN1CCc2nc(C#Cc3cccc(F)c3)ccc2C1=O` [10b], the “Category (mode of pharmacology)” value at mGlu5 receptor [2] is on record as “partial antagonists; also recorded: Partial Antag”.

For the molecule `CC(C)CN1CCc2nc(C#Cc3cccc(F)c3)ccc2C1=O` [10c], in the assay with mGlu5 receptor [3], the “Category (mode of pharmacology)” value was “Weak PAM”.

With `CCCCN1CCc2nc(C#Cc3cccc(F)c3)ccc2C1=O` [10d], in the assay on mGlu5 receptor [3], the “Category (mode of pharmacology)” value is “Weak PAM”.

On to `O=C1c2ccc(C#Cc3cccc(F)c3)nc2CCN1CC1CC1` [10e], for which, at mGlu5 receptor [2], the “Category (mode of pharmacology)” value was “partial antagonists; also recorded: Partial Antag”.

On to `O=C(c1ccc(C#Cc2ccccc2)cc1)N1CCC(O)CC1` [VU0092273], for which the “ligand efficiency (LE)” value in the assay with mGlu5 receptor [4] was about 0.5.

Take `O=C(NC1CCC1)c1ccc(C#Cc2cccc(F)c2)nc1` [VU0360172]: the “efficacy in an in vivo preclinical antipsychotic model” value in assay [5] is recorded as “efficacious”.
